Reference: PMC3265452 (PLoS Neglected Tropical Diseases, 2012)
Structures can show the parent of a compound that is named as a salt.

Experiments:
AaDOP1 [1] = target: T1, AaDOP1 (Aedes aegypti, UniProt H6D5H1); test: CRELuc reporter dose-response in HEK293 cells stably expressing AaDOP1; type: cell-based
AaDOP1 [2] = target: T1, AaDOP1; settings: single dose of dopamine 10 µM, n = 3
AaDOP2 = AaDOP2 (Aedes aegypti, UniProt H6D5H2); settings: single dose of dopamine 10 µM, n = 3
Chain of AaDOP2 (H6D5H2 1-476): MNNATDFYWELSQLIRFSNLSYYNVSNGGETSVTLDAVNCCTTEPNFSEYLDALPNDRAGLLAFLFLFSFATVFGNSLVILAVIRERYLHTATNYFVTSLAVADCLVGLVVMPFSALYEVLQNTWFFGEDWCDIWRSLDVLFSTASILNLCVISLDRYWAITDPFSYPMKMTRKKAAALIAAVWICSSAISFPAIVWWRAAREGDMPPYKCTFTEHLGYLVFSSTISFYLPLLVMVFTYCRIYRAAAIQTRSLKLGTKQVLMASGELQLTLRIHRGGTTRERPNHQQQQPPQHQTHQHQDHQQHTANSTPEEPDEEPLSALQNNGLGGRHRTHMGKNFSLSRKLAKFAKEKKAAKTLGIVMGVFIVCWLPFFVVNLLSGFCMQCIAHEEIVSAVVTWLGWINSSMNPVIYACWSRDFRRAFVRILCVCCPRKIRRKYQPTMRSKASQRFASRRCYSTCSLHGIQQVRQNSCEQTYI

T1 sequence (H6D5H1 entry or part of it): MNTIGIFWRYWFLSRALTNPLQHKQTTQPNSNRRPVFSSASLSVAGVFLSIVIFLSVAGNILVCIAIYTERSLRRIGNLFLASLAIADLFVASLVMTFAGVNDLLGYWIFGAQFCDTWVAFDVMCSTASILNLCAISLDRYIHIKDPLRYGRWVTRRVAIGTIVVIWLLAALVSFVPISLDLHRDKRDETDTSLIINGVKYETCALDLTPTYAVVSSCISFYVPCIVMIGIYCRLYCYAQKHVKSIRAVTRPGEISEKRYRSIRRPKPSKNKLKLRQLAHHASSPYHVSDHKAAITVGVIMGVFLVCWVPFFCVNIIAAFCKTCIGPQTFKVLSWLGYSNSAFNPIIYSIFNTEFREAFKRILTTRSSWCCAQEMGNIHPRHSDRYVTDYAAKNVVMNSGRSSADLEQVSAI

NCCc1ccc(O)c(O)c1 [Compound 603, Dopamine hydrochloride]
EC50 (AaDOP1 [1]): 3.1 ± 1.1 nM
increase of intracellular cAMP (AaDOP1 [2]): 2.7±0.6 fold
increase of intracellular cAMP (AaDOP2): 48±14 fold
